Data published in ChEMBL document CHEMBL1201862, “PubChem BioAssay data set” (2004).
Active and inactive are the calls of the source.

Assays:
Type in all cases: functional
[1] = target: T1, Apoptotic protease-activating factor 1 (Homo sapiens, UniProt O14727); test: SAR analysis of small molecule inhibitors of Apaf-1 in a Fluorescent assay.; details: read-out: IC50_Mean
T1 sequence (O14727 whole entry): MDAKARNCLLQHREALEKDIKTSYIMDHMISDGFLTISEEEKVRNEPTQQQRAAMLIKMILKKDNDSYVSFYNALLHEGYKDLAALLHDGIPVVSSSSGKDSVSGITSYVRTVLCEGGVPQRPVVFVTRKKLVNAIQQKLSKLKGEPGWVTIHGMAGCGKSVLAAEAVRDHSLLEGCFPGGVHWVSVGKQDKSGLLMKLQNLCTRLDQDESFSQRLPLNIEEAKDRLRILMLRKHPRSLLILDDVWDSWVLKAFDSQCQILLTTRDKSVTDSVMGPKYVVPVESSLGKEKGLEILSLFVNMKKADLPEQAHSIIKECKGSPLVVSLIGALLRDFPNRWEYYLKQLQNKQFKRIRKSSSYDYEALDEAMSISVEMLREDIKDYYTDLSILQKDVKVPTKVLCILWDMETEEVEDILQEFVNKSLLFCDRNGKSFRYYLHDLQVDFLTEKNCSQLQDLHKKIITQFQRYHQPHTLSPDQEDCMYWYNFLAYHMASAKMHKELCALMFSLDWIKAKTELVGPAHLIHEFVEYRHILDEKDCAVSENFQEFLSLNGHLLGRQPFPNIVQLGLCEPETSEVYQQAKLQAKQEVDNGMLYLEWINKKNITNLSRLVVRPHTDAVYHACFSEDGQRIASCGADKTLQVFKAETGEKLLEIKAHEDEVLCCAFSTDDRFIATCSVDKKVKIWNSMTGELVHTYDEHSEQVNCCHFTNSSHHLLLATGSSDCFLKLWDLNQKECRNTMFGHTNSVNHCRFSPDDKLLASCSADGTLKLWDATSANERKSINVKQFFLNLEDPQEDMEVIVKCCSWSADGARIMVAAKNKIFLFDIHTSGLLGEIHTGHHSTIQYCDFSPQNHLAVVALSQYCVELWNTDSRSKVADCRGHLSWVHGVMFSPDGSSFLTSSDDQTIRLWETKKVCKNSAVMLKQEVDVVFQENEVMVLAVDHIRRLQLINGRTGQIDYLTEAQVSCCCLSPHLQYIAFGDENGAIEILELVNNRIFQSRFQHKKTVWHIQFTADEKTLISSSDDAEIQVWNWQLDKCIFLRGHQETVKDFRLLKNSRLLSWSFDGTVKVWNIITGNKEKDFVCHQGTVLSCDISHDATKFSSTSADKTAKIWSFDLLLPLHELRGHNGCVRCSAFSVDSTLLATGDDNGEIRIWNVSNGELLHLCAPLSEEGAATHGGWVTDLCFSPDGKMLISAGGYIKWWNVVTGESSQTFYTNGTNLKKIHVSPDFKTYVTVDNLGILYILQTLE

[2] = target: Protein kinase C theta type (Homo sapiens, UniProt Q04759); test: Navigating the Kinome. Panel member name: PRKCQ
[3] = target: Dual specificity protein kinase CLK2 (Homo sapiens, UniProt P49760)
[4] = target: Dual specificity mitogen-activated protein kinase kinase 1 (Homo sapiens, UniProt Q02750); test: Navigating the Kinome. Panel member name: MAP2K1
[5] = target: ALK tyrosine kinase receptor (Homo sapiens, UniProt Q9UM73);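 note: ALK tested as one member of a kinase panel screen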
[6] = target: Tyrosine-protein kinase receptor TYRO3 (Homo sapiens, UniProt Q06418);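 note: TYRO3 value obtained as one member of a kinome-wide profiling panel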
[7] = target: Serine/threonine-protein kinase D3 (Homo sapiens, UniProt O94806);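 note: determined within a kinase panel screen, with PRKCN as the panel member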
[8] = target: Death-associated protein kinase 3 (Homo sapiens, UniProt O43293);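 note: measured as one member of a kinome-wide profiling panel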
Activin receptor type-1 = Activin receptor type-1 (Homo sapiens, UniProt Q04771); test: Navigating the Kinome. Panel member name: ACVR1
Aurora kinase A = Aurora kinase A (Homo sapiens, UniProt O14965);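 note: value from the Navigating the Kinome kinase panel profiling, panel entry STK6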
[9] = target: Fibroblast growth factor receptor 1 (Homo sapiens, UniProt P11362)
[10] = target: Casein kinase I isoform alpha (Homo sapiens, UniProt P48729)
[11] = target: Glycogen synthase kinase-3 alpha (Homo sapiens, UniProt P49840);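 note: GSK3A result taken from a broad kinome-wide kinase panel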
[12] = target: Mitogen-activated protein kinase kinase kinase kinase 2 (Homo sapiens, UniProt Q12851);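 note: measured as one member of a kinome-wide kinase panel, with MAP4K2 as the panel entry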
[13] = target: Hepatocyte growth factor receptor (Homo sapiens, UniProt P08581);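 note: kinase panel profiling across the kinome, with MET as the panel member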
Activated CDC42 kinase 1 = Activated CDC42 kinase 1 (Homo sapiens, UniProt Q07912); test: Navigating the Kinome. Panel member name: ACK1
[14] = target: Platelet-derived growth factor receptor beta (Homo sapiens, UniProt P09619);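 note: value comes from a kinome panel, with PDGFRB tested as one panel member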
[15] = target: Tyrosine-protein kinase ABL1 (Homo sapiens, UniProt P00519)
[16] = target: Vascular endothelial growth factor receptor 2 (Homo sapiens, UniProt P35968)
[17] = target: Cyclin-dependent kinase 5 (Homo sapiens, UniProt Q00535);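 note: CDK5 measured as one member of a kinase profiling panel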
[18] = target: Dual specificity tyrosine-phosphorylation-regulated kinase 1B (Homo sapiens, UniProt Q9Y463); test: Navigating the Kinome. Panel member name: DYRK1B
[19] = target: cAMP-dependent protein kinase catalytic subunit PRKX (Homo sapiens, UniProt P51817)
Focal adhesion kinase 1 = Focal adhesion kinase 1 (Homo sapiens, UniProt Q05397);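 note: measured as one member of a kinome panel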
[20] = target: Leucine-rich repeat serine/threonine-protein kinase 2 (Homo sapiens, UniProt Q5S007);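 note: value from a broad kinome-wide panel profiling study in which LRRK2 was one of the kinases tested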
[21] = target: Rho-associated protein kinase 1 (Homo sapiens, UniProt Q13464);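 note: measured within a broad kinome-wide panel profiling many kinases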
[22] = target: Cyclin-dependent kinase 7 (Homo sapiens, UniProt P50613);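 note: value comes from a kinome-wide kinase profiling panel in which CDK7 is one member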
[23] = target: Vascular endothelial growth factor receptor 1 (Homo sapiens, UniProt P17948);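 note: measured within a kinome-wide profiling panel, FLT1 as the panel member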
[24] = target: Glycogen synthase kinase-3 beta (Homo sapiens, UniProt P49841);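 note: value comes from a broad kinome profiling panel, with GSK3B as the panel member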
[25] = target: Cyclin-dependent kinase 9 (Homo sapiens, UniProt P50750);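 note: value from the CDK9 entry of a kinome-spanning kinase panel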
[26] = target: cAMP-dependent protein kinase catalytic subunit alpha (Homo sapiens, UniProt P17612)
[27] = target: Dual specificity protein kinase CLK4 (Homo sapiens, UniProt Q9HAZ1)
[28] = target: Mitogen-activated protein kinase kinase kinase kinase 4 (Homo sapiens, UniProt O95819)
[29] = target: Macrophage-stimulating protein receptor (Homo sapiens, UniProt Q04912); test: Navigating the Kinome. Panel member name: MST1R
[30] = target: Macrophage colony-stimulating factor 1 receptor (Homo sapiens, UniProt P07333);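 note: value comes from the Navigating the Kinome screening panel, CSF1R member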
[31] = target: Dual specificity mitogen-activated protein kinase kinase 2 (Homo sapiens, UniProt P36507); test: Navigating the Kinome. Panel member name: MAP2K2
[32] = target: Dual specificity tyrosine-phosphorylation-regulated kinase 1A (Homo sapiens, UniProt Q13627);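 note: measured against DYRK1A as one member of a broad kinome profiling panel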
[33] = target: Calcium/calmodulin-dependent protein kinase type II subunit alpha (Homo sapiens, UniProt Q9UQM7); test: Navigating the Kinome. Panel member name: CAMK2A
[34] = target: Leukocyte tyrosine kinase receptor (Homo sapiens, UniProt P29376); test: Navigating the Kinome. Panel member name: LTK
[35] = target: T2, Neuropeptides B/W receptor type 1 (Homo sapiens, UniProt P48145); test: GPR7 antagonist potency, late-stage follow-up, cell-based, fluorescence, dose response, set 5 (AID 588566)
T2 sequence (P48145 whole entry): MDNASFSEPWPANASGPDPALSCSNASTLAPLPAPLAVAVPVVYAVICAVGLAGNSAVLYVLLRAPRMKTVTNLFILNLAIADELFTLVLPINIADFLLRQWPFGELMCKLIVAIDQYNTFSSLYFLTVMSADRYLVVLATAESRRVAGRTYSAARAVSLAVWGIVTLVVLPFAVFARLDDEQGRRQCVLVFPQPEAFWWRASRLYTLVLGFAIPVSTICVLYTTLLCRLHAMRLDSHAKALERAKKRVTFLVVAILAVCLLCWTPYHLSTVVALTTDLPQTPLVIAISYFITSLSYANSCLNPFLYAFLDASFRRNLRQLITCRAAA

[36] = target: T3, Melanin-concentrating hormone receptor 1 (Homo sapiens, UniProt Q99705); test: Late-stage fluorescence-based counterscreen for antagonists of the G-protein coupled receptor 7 (GPR7): cell-based dose response assay to identify antagonists of the melanin-concentrating hormone receptor 1 (MCHR1) Set 5.
[37] = target: T3, Melanin-concentrating hormone receptor 1; test: Late-stage fluorescence-based counterscreen for antagonists of the G-protein coupled receptor 7 (GPR7): cell-based dose response assay to identify antagonists of the melanin-concentrating hormone receptor 1 (MCHR1) Set 6.
[38] = target: T2, Neuropeptides B/W receptor type 1; test: GPR7 antagonist potency, late-stage follow-up, cell-based, fluorescence, dose response, set 6 (AID 588583)

T3 sequence (Q99705 whole entry): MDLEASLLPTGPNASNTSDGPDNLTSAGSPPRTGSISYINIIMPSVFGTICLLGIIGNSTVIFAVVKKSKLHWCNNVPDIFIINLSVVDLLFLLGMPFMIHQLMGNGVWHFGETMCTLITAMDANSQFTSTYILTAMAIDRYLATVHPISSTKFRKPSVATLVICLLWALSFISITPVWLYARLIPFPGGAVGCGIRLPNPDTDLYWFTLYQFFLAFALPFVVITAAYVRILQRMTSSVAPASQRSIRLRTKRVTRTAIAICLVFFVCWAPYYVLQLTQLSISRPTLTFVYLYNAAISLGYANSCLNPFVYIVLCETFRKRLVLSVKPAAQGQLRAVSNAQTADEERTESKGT
Glycogen synthase kinase-3 beta, sequence (P49841 whole entry): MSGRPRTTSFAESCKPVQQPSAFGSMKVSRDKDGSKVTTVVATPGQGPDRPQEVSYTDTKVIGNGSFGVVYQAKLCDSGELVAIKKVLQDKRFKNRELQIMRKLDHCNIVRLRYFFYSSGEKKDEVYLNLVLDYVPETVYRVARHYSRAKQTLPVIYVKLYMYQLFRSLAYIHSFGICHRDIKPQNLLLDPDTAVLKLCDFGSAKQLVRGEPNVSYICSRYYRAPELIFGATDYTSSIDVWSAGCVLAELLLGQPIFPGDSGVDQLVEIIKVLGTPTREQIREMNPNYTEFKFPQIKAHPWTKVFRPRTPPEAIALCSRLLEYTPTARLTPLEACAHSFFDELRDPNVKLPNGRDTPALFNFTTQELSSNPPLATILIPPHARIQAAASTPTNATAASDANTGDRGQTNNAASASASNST
Dual specificity tyrosine-phosphorylation-regulated kinase 1B, sequence (Q9Y463 whole entry): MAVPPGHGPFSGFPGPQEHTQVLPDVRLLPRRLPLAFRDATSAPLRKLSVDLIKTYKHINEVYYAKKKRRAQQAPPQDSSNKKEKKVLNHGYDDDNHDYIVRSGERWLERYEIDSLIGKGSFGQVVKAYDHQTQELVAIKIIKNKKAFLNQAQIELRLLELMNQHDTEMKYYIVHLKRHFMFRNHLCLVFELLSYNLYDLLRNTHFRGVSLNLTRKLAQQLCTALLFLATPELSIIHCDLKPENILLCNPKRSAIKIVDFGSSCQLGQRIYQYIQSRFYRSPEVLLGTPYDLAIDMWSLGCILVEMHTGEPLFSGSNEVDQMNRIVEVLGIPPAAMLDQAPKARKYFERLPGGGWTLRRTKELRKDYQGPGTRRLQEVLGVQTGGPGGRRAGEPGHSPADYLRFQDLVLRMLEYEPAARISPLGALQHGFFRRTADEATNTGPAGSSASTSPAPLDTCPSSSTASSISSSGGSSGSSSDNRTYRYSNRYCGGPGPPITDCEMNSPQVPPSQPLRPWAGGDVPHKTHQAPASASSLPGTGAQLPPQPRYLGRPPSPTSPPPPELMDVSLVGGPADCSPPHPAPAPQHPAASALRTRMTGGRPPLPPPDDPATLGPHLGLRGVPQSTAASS
Activin receptor type-1, sequence (Q04771 whole entry): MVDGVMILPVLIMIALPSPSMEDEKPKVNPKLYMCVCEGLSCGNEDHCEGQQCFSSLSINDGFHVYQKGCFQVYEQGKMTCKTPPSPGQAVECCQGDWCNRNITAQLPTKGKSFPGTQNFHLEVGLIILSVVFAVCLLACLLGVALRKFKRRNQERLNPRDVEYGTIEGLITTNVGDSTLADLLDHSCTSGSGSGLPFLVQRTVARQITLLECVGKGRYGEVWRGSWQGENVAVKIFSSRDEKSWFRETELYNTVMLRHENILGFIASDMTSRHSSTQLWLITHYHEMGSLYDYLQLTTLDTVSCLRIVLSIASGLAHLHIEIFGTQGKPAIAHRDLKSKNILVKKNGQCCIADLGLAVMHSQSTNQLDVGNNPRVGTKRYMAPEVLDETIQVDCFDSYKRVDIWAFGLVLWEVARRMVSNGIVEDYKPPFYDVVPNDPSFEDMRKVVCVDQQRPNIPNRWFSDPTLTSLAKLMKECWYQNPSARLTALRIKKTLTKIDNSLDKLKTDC
Macrophage-stimulating protein receptor, sequence (Q04912 25-304 limits assumed): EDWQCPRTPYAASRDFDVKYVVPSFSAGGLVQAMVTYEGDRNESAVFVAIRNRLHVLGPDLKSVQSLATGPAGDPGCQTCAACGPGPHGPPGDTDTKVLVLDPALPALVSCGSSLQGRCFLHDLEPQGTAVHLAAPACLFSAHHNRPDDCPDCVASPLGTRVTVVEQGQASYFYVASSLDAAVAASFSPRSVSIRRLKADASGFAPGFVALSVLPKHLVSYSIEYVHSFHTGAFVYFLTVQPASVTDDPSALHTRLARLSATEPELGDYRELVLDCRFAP
Macrophage-stimulating protein receptor, sequence (Q04912 310-1400 limits assumed): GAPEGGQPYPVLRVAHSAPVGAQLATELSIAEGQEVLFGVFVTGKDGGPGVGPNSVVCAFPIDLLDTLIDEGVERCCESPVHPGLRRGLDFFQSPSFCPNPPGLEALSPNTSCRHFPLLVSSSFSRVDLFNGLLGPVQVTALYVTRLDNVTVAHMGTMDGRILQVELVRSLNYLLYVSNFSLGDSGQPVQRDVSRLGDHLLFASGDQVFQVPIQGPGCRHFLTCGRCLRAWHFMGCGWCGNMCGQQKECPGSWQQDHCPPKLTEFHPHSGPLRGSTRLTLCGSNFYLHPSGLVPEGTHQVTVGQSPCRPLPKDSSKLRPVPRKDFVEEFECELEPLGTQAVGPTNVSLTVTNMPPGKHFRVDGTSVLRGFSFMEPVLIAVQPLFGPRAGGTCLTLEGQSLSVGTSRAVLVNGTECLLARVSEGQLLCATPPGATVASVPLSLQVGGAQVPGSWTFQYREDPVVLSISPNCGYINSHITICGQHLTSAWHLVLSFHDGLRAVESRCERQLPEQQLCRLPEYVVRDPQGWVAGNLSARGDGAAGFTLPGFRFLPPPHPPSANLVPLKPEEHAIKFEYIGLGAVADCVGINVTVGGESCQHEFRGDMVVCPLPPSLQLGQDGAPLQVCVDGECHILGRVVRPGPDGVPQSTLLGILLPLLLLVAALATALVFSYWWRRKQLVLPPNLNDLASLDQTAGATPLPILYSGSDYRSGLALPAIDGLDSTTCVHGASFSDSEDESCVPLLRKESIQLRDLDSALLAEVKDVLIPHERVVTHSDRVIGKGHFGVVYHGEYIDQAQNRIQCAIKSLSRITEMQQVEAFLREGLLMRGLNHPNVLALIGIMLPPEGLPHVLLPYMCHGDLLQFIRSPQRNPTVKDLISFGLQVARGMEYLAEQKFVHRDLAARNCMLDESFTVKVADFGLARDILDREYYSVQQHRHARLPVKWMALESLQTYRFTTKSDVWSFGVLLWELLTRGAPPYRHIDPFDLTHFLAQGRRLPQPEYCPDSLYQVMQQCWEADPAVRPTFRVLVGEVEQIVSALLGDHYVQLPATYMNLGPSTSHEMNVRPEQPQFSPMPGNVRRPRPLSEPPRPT
ALK tyrosine kinase receptor, sequence (Q9UM73 whole entry): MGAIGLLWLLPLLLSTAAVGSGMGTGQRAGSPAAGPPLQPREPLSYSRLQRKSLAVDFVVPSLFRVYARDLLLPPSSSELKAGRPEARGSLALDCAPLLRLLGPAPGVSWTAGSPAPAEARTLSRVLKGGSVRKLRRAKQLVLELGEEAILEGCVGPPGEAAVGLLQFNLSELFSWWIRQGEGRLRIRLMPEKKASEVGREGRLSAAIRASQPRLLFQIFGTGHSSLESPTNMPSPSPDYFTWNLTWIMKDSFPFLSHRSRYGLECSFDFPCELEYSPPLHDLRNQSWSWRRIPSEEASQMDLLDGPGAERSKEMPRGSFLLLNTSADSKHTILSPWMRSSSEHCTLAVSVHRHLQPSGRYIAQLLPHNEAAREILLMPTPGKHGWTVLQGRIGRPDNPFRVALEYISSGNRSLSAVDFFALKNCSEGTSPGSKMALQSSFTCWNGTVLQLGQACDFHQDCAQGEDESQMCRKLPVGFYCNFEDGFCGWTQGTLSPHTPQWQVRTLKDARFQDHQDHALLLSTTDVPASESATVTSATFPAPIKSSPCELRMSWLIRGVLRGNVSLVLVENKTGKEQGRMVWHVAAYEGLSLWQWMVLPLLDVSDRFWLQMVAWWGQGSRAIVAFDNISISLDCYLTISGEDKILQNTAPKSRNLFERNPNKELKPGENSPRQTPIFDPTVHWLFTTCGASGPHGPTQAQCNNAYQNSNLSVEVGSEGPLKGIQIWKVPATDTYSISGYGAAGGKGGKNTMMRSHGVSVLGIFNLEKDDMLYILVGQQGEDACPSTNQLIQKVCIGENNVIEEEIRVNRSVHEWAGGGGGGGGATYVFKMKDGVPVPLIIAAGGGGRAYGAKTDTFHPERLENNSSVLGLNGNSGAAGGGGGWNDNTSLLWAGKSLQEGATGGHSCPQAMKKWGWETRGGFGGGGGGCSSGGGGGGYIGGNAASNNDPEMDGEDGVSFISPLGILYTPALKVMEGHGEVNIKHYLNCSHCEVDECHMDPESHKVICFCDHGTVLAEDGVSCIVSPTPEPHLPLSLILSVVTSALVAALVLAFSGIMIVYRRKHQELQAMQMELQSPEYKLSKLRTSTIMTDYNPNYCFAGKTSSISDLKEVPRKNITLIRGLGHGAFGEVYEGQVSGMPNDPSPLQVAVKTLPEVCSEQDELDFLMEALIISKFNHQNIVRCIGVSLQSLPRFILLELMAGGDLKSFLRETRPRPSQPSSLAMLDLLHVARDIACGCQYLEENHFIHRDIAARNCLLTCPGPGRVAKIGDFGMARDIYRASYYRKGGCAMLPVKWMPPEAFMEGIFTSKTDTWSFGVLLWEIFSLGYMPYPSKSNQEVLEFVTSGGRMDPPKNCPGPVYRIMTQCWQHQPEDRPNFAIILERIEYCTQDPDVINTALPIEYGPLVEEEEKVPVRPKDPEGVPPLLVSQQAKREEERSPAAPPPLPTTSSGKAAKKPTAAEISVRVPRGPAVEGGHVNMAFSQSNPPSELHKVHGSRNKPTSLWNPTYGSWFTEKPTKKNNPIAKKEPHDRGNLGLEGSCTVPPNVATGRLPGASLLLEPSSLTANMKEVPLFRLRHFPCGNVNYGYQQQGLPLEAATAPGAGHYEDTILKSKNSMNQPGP

## O=C(Nc1ccc2[nH]c(-c3cccs3)nc2c1)c1cccs1
[1]
  IC50: > 100 µM (inactive)

## Nc1n[nH]c2cccc(-c3ccc(F)cc3)c12
[2]
  Ki: 20 µM (active)
[3]
  Ki: 2 µM (active)
[4]
  Ki: 0.251 µM (active)
[5]
  Ki: 63.1 µM (active)
[6]
  Ki: 39.8 µM (active)
[7]
  Ki: 79.4 µM (active)
[8]
  Ki: 39.8 µM (active)
Activin receptor type-1
  Ki: 1 µM (active)
Aurora kinase A
  Ki: > 39.8 µM (inactive)
[9]
  Ki: 63.1 µM (active)
[10]
  Ki: 7.94 µM (active)
[11]
  Ki: 20 µM (active)
[12]
  Ki: 31.6 µM (active)
[13]
  Ki: 31.6 µM (active)
Activated CDC42 kinase 1
  Ki: 15.8 µM (active)
[14]
  Ki: 6.31 µM (active)
[15]
  Ki: 15.8 µM (active)
[16]
  Ki: 12.6 µM (active)
[17]
  Ki: 20 µM (active)
[18]
  Ki: 6.31 µM (active)
[19]
  Ki: 0.501 µM (active)
Focal adhesion kinase 1
  Ki: 20 µM (active)
[20]
  Ki: 1.26 µM (active)
[21]
  Ki: 0.501 µM (active)
[22]
  Ki: 20 µM (active)
[23]
  Ki: 79.4 µM (active)
[24]
  Ki: 20 µM (active)
[25]
  Ki: > 63.1 µM (inactive)
[26]
  Ki: 0.0794 µM (active)
[27]
  Ki: 0.0398 µM (active)
[28]
  Ki: 20 µM (active)
[29]
  Ki: 63.1 µM (active)
[30]
  Ki: 7.94 µM (active)
[31]
  Ki: 1.26 µM (active)
[32]
  Ki: 25.1 µM (active)
[33]
  Ki: 25.1 µM (active)
[34]
  Ki: 31.6 µM (active)

## N#CC(c1cccnc1)c1cnn(Cc2cccc3ccccc23)c(=O)c1Cl (configuration not stated)
[35]
  IC50: 1.18 µM (active)
[36]
  IC50: 3.67 µM (active)

## CCC(C#N)(c1ccccc1)c1c(Br)cnn(Cc2cccc3ccccc23)c1=O (configuration not stated)
[37]
  IC50: 8.2 µM (active)
[38]
  IC50: 8.2 µM (active)
